# Patent US9505729B2, “Isoxazole analogs as mediators of transcriptional induction of E-cadherin” (Vanderbilt University, priority 2014, dated 2016)
# Test system: E-cadherin expression in SW620 cells
# Assay: In-cell Western (ICW) cell-based functional assay of E-cadherin expression in SW620 cells
# Conditions: Homo sapiens, SW-620; change in expression level of E-cadherin in response to 10 μM compound, SW620 cells, 24 hours
# Description: SW620 and H520 cells (5×10^4/100 μL) were seeded in a 96-well plate prior to treatment. Cells were treated with 10 μM concentration of synthesized compound in quadruplicate for 24 hours in RPMI 1640 supplemented medium and 100 μg/mL penicillin-streptomycin. The cells were then fixed with 100% methanol for 20 minutes at 4° C. The wells were then washed 2 times with PBS, permeabilized in 2% bovine serum albumin (BSA) and 0.2% TritonX-100 in PBS for 30 minutes at room temperature with gentle agitation, and blocked in LI-COR blocking buffer for 30 minutes at room temperature with gentle agitation. The cells were then incubated with the following primary antibodies: anti-E-Cadherin (1:500) and anti-α-Tubulin (1:1000) diluted in blocking buffer (1:1 dilution in PBS) for 2 hours at room temperature with gentle agitation. The cells were washed 4 times in PBS-T for 5 minutes each, and then incubated with the following secondary antibodies conjugated to a fluorescent entity: IRDye 800-conjugated goat anti-rabbit IgG (1:1000) and IRDye-700-conjugated goat anti-mouse IgG (1:2000) in blocking buffer (1:1 dilution in PBS) with gentle agitation for 1 h at room temperature. The cells were washed 4 times in PBS-T for 5 minutes each followed by a single wash with PBS. All liquid was removed from the wells and the plates were visualized and analyzed on the Odyssey IR imaging system (LI-COR Biosciences).
# The assay was further optimized in the following manner. The cells were washed 2 times with PBS, fixed in 100% methanol at room temperature for 15 minutes, and again washed 2 times with PBS. The cells were then incubated with the following primary antibodies: anti-E-Cadherin (1:200) and anti-α-Tubulin (1:2000) diluted in ice cold 2% bovine serum albumin (BSA) and 0.2% TritonX-100 in PBS for 1 hour at room temperature with gentle agitation. The cells were washed 2 times in PBS and then incubated with the following secondary antibodies conjugated to a fluorescent entity: Licor 800-conjugated goat anti-rabbit IgG (1:2000) and IRDye-700-conjugated goat anti-mouse IgG (1:2000) in ice cold 2% BSA and 0.2% TritonX-100 in PBS with gentle agitation for 45 minutes at room temperature. The wells were washed 2 times in PBS, dried, and analyzed as previously mentioned.
# N-(3-(Arylamino)alkyl)-5-arylisoxazole-3-carboxamide analogs were synthesized as described above. Changes in expression level of E-cadherin in response to 10 μM compound in SW620 cells was determined in the cell-based functional assay as described above, and the data are shown in Table II. The compound number corresponds to the compound numbers used in Table I.
# EC50 of inducement of E-cadherin expression in SW620 cells was determined in the cell-based functional assay as described above, and the data are shown in Table III. The compound number corresponds to the compound numbers used in Table I.
row,SMILES,fold induction at 10 µM
1,"N#Cc1ccc(NCCCNC(=O)c2cc(-c3ccccc3)on2)nc1 [Compound 1, N-(3-((5-cyanopyridin-2-yl)amino)propyl)-5-phenylisoxazole-3-carboxamide]",0.63
2,"O=C(NCCCNCc1c[nH]c2ccccc12)c1cc(-c2ccccc2)on1 [Compound 2, N-(3-(((1H-indol-3-yl)methyl)amino)propyl)-5-phenylisoxazole-3-carboxamide]",0.68
3,"O=C(NCCCNCc1cccnc1)c1cc(-c2ccccc2)on1 [Compound 3, 5-phenyl-N-(3-((pyridin-3-ylmethyl)amino)propyl)isoxazole-3-carboxamide]",0.7
4,"Cc1ncc(CNCCCNC(=O)c2cc(-c3ccccc3)on2)o1 [Compound 4, N-(3-(((2-methyloxazol-5-yl)methyl)amino)propyl)-5-phenylisoxazole-3-carboxamide]",0.71
5,"O=C(NCCCNCc1ccccn1)c1cc(-c2ccccc2)on1 [Compound 5, 5-phenyl-N-(3-((pyridin-2-ylmethyl)amino)propyl)isoxazole-3-carboxamide]",0.71
6,"O=C(NCCCN(Cc1ccccn1)Cc1ccccn1)c1cc(-c2ccccc2)on1 [Compound 6, N-(3-(bis(pyridin-2-ylmethyl)amino)propyl)-5-phenylisoxazole-3-carboxamide]",0.82
7,"Cc1ncc(CN(CCCNC(=O)c2cc(-c3ccccc3)on2)Cc2cnc(C)o2)o1 [Compound 7, N-(3-(bis((2-methyloxazol-5-yl)methyl)amino)propyl)-5-phenylisoxazole-3-carboxamide]",0.83
8,"O=C(NCCCNCc1ccc(O)c(O)c1)c1cc(-c2ccccc2)on1 [Compound 8, N-(3-((3,4-dihydroxybenzyl)amino)propyl)-5-phenylisoxazole-3-carboxamide]",0.84
9,"COc1cncc(CNCCCNC(=O)c2cc(-c3ccccc3)on2)c1 [Compound 9, N-(3-(((5-methoxypyridin-3-yl)methyl)amino)propyl)-5-phenylisoxazole-3-carboxamide]",0.89
10,"O=C(NCCCNCc1c[nH]c2ncccc12)c1cc(-c2ccccc2)on1 [Compound 10, N-(3-(((1H-pyrrolo[2,3-b]pyridin-3-yl)methyl)amino)propyl)-5-phenylisoxazole-3-carboxamide]",0.91
11,"Cc1cc(CNCCCNC(=O)c2cc(-c3ccccc3)on2)on1 [Compound 11, N-(3-(((3-methylisoxazol-5-yl)methyl)amino)propyl)-5-phenylisoxazole-3-carboxamide]",0.9
12,"O=C(NCCCNCc1ccc(O)cc1O)c1cc(-c2ccccc2)on1 [Compound 12, N-(3-((2,4-dihydroxybenzyl)amino)propyl)-5-phenylisoxazole-3-carboxamide]",0.91
13,"CC(=O)n1cc(CNCCCNC(=O)c2cc(-c3ccccc3)on2)c2ccccc21 [Compound 13, N-(3-(((1-acetyl-1H-indol-3-yl)methyl)amino)propyl)-5-phenylisoxazole-3-carboxamide]",0.91
14,"O=C(NCCCNCc1cnoc1)c1cc(-c2ccccc2)on1 [Compound 14, N-(3-((isoxazol-4-ylmethyl)amino)propyl)-5-phenylisoxazole-3-carboxamide]",0.94
15,"O=C(NCCCN(Cc1cnoc1)Cc1cnoc1)c1cc(-c2ccccc2)on1 [Compound 15, N-(3-(bis(isoxazol-4-ylmethyl)amino)propyl)-5-phenylisoxazole-3-carboxamide]",0.95
16,"O=C(NCCCNCc1ccccc1O)c1cc(-c2ccccc2)on1 [Compound 16, N-(3-((2-hydroxybenzyl)amino)propyl)-5-phenylisoxazole-3-carboxamide]",0.98
17,"[N-]=[N+]=Nc1nccc(NCCCNC(=O)c2cc(-c3ccccc3)on2)n1 [Compound 17, N-(3-((2-azidopyrimidin-4-yl)amino)propyl)-5-phenylisoxazole-3-carboxamide]",1.07
18,"O=C(NCCCNCc1ccccc1O)c1cc(-c2ccccc2)[nH]n1 [Compound 21, N-(3-((2-hydroxybenzyl)amino)propyl)-5-phenyl-1H-pyrazole-3-carboxamide]",1.14
19,"O=C(NCCCNCc1cccnc1)c1cc(-c2ccccc2)[nH]n1 [Compound 22, 5-phenyl-N-(3-((pyridin-3-ylmethyl)amino)propyl)-1H-pyrazole-3-carboxamide]",1.16
20,"O=C(NCCCNCc1ccccn1)c1cc(-c2ccccc2)[nH]n1 [Compound 23, 5-phenyl-N-(3-((pyridin-2-ylmethyl)amino)propyl)-1H-pyrazole-3-carboxamide]",1.44
21,"Cc1ncc(CNCCCNC(=O)c2cc(-c3ccccc3)[nH]n2)o1 [Compound 24, N-(3-(((2-methyloxazol-5-yl)methyl)amino)propyl)-5-phenyl-1H-pyrazole-3-carboxamide]",1.5
22,"Cc1ncc(CN(CCCNC(=O)c2cc(-c3ccccc3)[nH]n2)Cc2cnc(C)o2)o1 [Compound 25, N-(3-(bis((2-methyloxazol-5-yl)methyl)amino)propyl)-5-phenyl-1H-pyrazole-3-carboxamide]",1.54
23,"O=C(NCCCNCc1c[nH]c2ccccc12)c1cc(-c2ccccc2)[nH]n1 [Compound 26, N-(3-(((1H-indol-3-yl)methyl)amino)propyl)-5-phenyl-1H-pyrazole-3-carboxamide]",1.64
24,"O=C(NCCCN(Cc1ccc(O)c(O)c1)Cc1ccc(O)c(O)c1)c1cc(-c2ccccc2)[nH]n1 [Compound 27, N-(3-(bis(3,4-dihydroxybenzyl)amino)propyl)-5-phenyl-1H-pyrazole-3-carboxamide]",1.67
25,"COc1cncc(CNCCCNC(=O)c2cc(-c3ccccc3)[nH]n2)c1 [Compound 28, N-(3-(((5-methoxypyridin-3-yl)methyl)amino)propyl)-5-phenyl-1H-pyrazole-3-carboxamide]",1.8
26,"COc1cncc(CN(CCCNC(=O)c2cc(-c3ccccc3)[nH]n2)Cc2cncc(OC)c2)c1 [Compound 29, N-(3-(bis((5-methoxypyridin-3-yl)methyl)amino)propyl)-5-phenyl-1H-pyrazole-3-carboxamide]",2.09
27,"O=C(NCCCNCc1c[nH]c2ncccc12)c1cc(-c2ccccc2)[nH]n1 [Compound 30, N-(3-(((1H-pyrrolo[2,3-b]pyridin-3-yl)methyl)amino)propyl)-5-phenyl-1H-pyrazole-3-carboxamide]",2.33
28,"Cc1cc(CNCCCNC(=O)c2cc(-c3ccccc3)[nH]n2)on1 [Compound 31, N-(3-(((3-methylisoxazol-5-yl)methyl)amino)propyl)-5-phenyl-1H-pyrazole-3-carboxamide]",2.52
29,"Cc1cc(CN(CCCNC(=O)c2cc(-c3ccccc3)[nH]n2)Cc2cc(C)no2)on1 [Compound 32, N-(3-(bis((3-methylisoxazol-5-yl)methyl)amino)propyl)-5-phenyl-1H-pyrazole-3-carboxamide]",3.06
30,"O=C(NCCCNCc1ccc(O)cc1O)c1cc(-c2ccccc2)[nH]n1 [Compound 33, N-(3-((2,4-dihydroxybenzyl)amino)propyl)-5-phenyl-1H-pyrazole-3-carboxamide]",3.4
